Blank lines part the entries; values can stand above or below the compound they belong to.
Tested on: 966289-007-R4-J1-PDC complex spheroid viability
Assay: Anticancer human tumor 966289-007-R4-J1-PDC patient-derived pancreatic adenocarcinoma cell line growth inhibition [RAS]
Details: for viability, T/C: stronger effect = lower value
How it was run: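 Agents were tested in combination matrices in half-log decrements from a top concentration at or near clinical Cmax (10 microM if undetermined). Targets were multi-cell spheroids of tumour lines plus HUVEC and MSC stromal cells.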

[1] = curve of first compound, second compound 0.0316 µM
[2] = curve of first compound, second compound 0.1 µM
[3] = curve of first compound, second compound 0.316 µM
[4] = curve of first compound, second compound 1 µM
[5] = second compound 0.0316 µM, first compound 0.00316 µM
[6] = second compound 0.0316 µM, first compound 0.01 µM
[7] = second compound 0.0316 µM, first compound 0.0316 µM
[8] = second compound 0.0316 µM, first compound 0.1 µM
[9] = second compound 0.1 µM, first compound 0.00316 µM
[10] = second compound 0.1 µM, first compound 0.01 µM
[11] = second compound 0.1 µM, first compound 0.0316 µM
[12] = second compound 0.1 µM, first compound 0.1 µM
[13] = second compound 0.316 µM, first compound 0.00316 µM
[14] = second compound 0.316 µM, first compound 0.01 µM
[15] = second compound 0.316 µM, first compound 0.0316 µM
[16] = second compound 0.316 µM, first compound 0.1 µM
[17] = second compound 1 µM, first compound 0.00316 µM
[18] = second compound 1 µM, first compound 0.01 µM
[19] = second compound 1 µM, first compound 0.0316 µM
[20] = second compound 1 µM, first compound 0.1 µM
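Further: spheroids exposed to agents for one week before readout.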
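Wherever viability, T/C is given: percent viability relative to DMSO vehicle control wells as 100%.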

IC50 (curve of first compound, second compound 0.00316 µM): 36.3 nM
IC50 (curve of first compound, second compound 0.01 µM): 32.9 nM
IC50 [1]: 43.7 nM
IC50 [2]: 34.6 nM
IC50 [3]: 51.5 nM
IC50 [4]: 29.2 nM
Compound: CC(C)n1nc(-c2ccc3oc(N)nc3c2)c2c(N)ncnc21 + C=CC(=O)N1CCN(c2nc(OCC3CCCN3C)nc3c(F)c(-c4nc(N)cc(C)c4C(F)(F)F)c(Cl)cc23)C(C)C1
viability, T/C (second compound 0.00316 µM, first compound 0.000316 µM): 116%
viability, T/C (second compound 0.00316 µM, first compound 0.001 µM): 83.6%
viability, T/C (second compound 0.00316 µM, first compound 0.00316 µM): 111%
viability, T/C (second compound 0.00316 µM, first compound 0.01 µM): 105%
viability, T/C (second compound 0.00316 µM, first compound 0.0316 µM): 54.5%
viability, T/C (second compound 0.00316 µM, first compound 0.1 µM): 17.7%
viability, T/C (second compound 0.01 µM, first compound 0.000316 µM): 110%
viability, T/C (second compound 0.01 µM, first compound 0.001 µM): 108%
viability, T/C (second compound 0.01 µM, first compound 0.00316 µM): 112%
viability, T/C (second compound 0.01 µM, first compound 0.01 µM): 94.2%
viability, T/C (second compound 0.01 µM, first compound 0.0316 µM): 51.5%
viability, T/C (second compound 0.01 µM, first compound 0.1 µM): 19.6%
viability, T/C (second compound 0.0316 µM, first compound 0.000316 µM): 123%
viability, T/C (second compound 0.0316 µM, first compound 0.001 µM): 113%
viability, T/C [5]: 121%
viability, T/C [6]: 101%
viability, T/C [7]: 62.5%
viability, T/C [8]: 18.9%
viability, T/C (second compound 0.1 µM, first compound 0.000316 µM): 103%
viability, T/C (second compound 0.1 µM, first compound 0.001 µM): 97.3%
viability, T/C [9]: 106%
viability, T/C [10]: 106%
viability, T/C [11]: 52.4%
viability, T/C [12]: 21.1%
viability, T/C (second compound 0.316 µM, first compound 0.000316 µM): 103%
viability, T/C (second compound 0.316 µM, first compound 0.001 µM): 82.2%
viability, T/C [13]: 132%
viability, T/C [14]: 116%
viability, T/C [15]: 68.4%
viability, T/C [16]: 24.9%
viability, T/C (second compound 1 µM, first compound 0.000316 µM): 92.5%
viability, T/C (second compound 1 µM, first compound 0.001 µM): 102%
viability, T/C [17]: 111%
viability, T/C [18]: 91.9%
viability, T/C [19]: 47.1%
viability, T/C [20]: 20.3%

IC50 (curve of compound): > 1000 nM
Compound: CCN1CCN(Cc2ccc(Nc3ncc(F)c(-c4cc(F)c5nc(C)n(C(C)C)c5c4)n3)nc2)CC1
viability, T/C (compound 0.00316 µM): 113% [middle of 4 runs]
viability, T/C (compound 0.01 µM): 100% [middle of 4 runs]
viability, T/C (compound 0.316 µM): 94.4% [middle of 4 runs]
viability, T/C (compound 1 µM): 84% [middle of 4 runs]

IC50 (curve of compound): < 31.6 nM
Compound: CC(=O)OC12COC1CC(O)C1(C)C(=O)C(O)C3=C(C)C(OC(=O)C(O)C(NC(=O)OC(C)(C)C)c4ccccc4)CC(O)(C(OC(=O)c4ccccc4)C21)C3(C)C (stereo unspecified)
viability, T/C (compound 0.0316 µM): 7.82% [middle of 4 runs]
viability, T/C (compound 0.1 µM): 14.1% [middle of 4 runs]
viability, T/C (compound 0.316 µM): 15.4% [middle of 4 runs]
viability, T/C (compound 1 µM): 19.7% [middle of 4 runs]
viability, T/C (compound 3.16 µM): 38.3% [middle of 4 runs]
viability, T/C (compound 10 µM): 67% [middle of 4 runs]

IC50 [1]: 397 nM
IC50 [2]: 376 nM
IC50 [3]: 395 nM
IC50 [4]: 409 nM
IC50 (curve of first compound, second compound 3.16 µM): 404 nM
IC50 (curve of first compound, second compound 10 µM): 522 nM
Compound: O=C(c1ccc(F)c(F)c1Nc1ccc(I)cc1F)N1CC(O)([C@@H]2CCCCN2)C1 + C#Cc1c(F)ccc2cc(O)cc(-c3ncc4c(N5CC6CCC(C5)N6)nc(OCC56CCCN5CC(F)C6)nc4c3F)c12
viability, T/C [5]: 87%
viability, T/C [6]: 68.4%
viability, T/C [7]: 78%
viability, T/C [8]: 66.3%
viability, T/C (second compound 0.0316 µM, first compound 0.316 µM): 55.5%
viability, T/C (second compound 0.0316 µM, first compound 1 µM): 31.8%
viability, T/C [9]: 96.2%
viability, T/C [10]: 73.7%
viability, T/C [11]: 61.7%
viability, T/C [12]: 66.3%
viability, T/C (second compound 0.1 µM, first compound 0.316 µM): 64.5%
viability, T/C (second compound 0.1 µM, first compound 1 µM): 33.3%
viability, T/C [13]: 76%
viability, T/C [14]: 70.3%
viability, T/C [15]: 73%
viability, T/C [16]: 60.8%
viability, T/C (second compound 0.316 µM, first compound 0.316 µM): 56.4%
viability, T/C (second compound 0.316 µM, first compound 1 µM): 33.3%
viability, T/C [17]: 74.5%
viability, T/C [18]: 74.4%
viability, T/C [19]: 65%
viability, T/C [20]: 65.2%
viability, T/C (second compound 1 µM, first compound 0.316 µM): 56.6%
viability, T/C (second compound 1 µM, first compound 1 µM): 32.8%
viability, T/C (second compound 3.16 µM, first compound 0.00316 µM): 78.6%
viability, T/C (second compound 3.16 µM, first compound 0.01 µM): 72.9%
viability, T/C (second compound 3.16 µM, first compound 0.0316 µM): 70.7%
viability, T/C (second compound 3.16 µM, first compound 0.1 µM): 64.4%
viability, T/C (second compound 3.16 µM, first compound 0.316 µM): 54.2%
viability, T/C (second compound 3.16 µM, first compound 1 µM): 36.3%
viability, T/C (second compound 10 µM, first compound 0.00316 µM): 77.7%
viability, T/C (second compound 10 µM, first compound 0.01 µM): 69.8%
viability, T/C (second compound 10 µM, first compound 0.0316 µM): 71.2%
viability, T/C (second compound 10 µM, first compound 0.1 µM): 66%
viability, T/C (second compound 10 µM, first compound 0.316 µM): 59.4%
viability, T/C (second compound 10 µM, first compound 1 µM): 39.3%

Source: PubChem BioAssay AID2060897 (Molecular Pharmacology Branch, DTP, NCI, 2025)
